Experimental data taken from PMC12535076, “Neurotherapeutic effects of Vutiglabridin as a Paraoxonase-2 modulator in preclinical models of Parkinson’s disease” (Molecular Neurodegeneration, 2025).
Where two headings read alike, the source gives them in different places.

Experiments:
MAO-A = biological target: T1, MAO-A (Homo sapiens, UniProt P21397); assay: ROS Glo based MAO-A enzyme activity assay; type: biochemical; settings: printed as 'separate MAO-B assay' within the MAO-A panel (b); read-out: IC50, ROS-Glo method, panel (b)
T1 sequence (P21397 1-527): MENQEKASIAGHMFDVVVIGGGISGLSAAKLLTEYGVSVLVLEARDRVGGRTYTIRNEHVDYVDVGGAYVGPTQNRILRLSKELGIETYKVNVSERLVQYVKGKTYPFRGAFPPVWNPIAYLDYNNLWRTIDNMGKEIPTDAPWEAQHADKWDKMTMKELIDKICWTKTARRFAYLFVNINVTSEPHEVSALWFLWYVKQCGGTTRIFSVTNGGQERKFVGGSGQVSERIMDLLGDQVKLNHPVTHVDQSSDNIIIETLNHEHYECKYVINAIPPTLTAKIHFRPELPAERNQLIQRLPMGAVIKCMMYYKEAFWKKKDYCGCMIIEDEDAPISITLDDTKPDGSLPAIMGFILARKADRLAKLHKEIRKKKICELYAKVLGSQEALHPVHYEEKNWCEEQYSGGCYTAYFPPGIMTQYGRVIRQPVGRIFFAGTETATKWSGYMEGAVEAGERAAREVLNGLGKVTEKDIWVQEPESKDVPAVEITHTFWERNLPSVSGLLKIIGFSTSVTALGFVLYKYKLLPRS
Description: An enzyme solution was prepared by diluting 10 µL of a 2.5 mg/mL MAO-A or MAO-B stock in 10 mL of 50 mM sodium phosphate buffer (pH 7.4). A substrate solution was prepared by diluting 200 µL of a 100 mM benzylamine (or tyramine) stock in 10 mL phosphate buffer to achieve a final concentration of 1 mM. For each 96-well plate experiment, 12.5 µL of a 1× H2O2 probe solution was added to 1 mL of the probe dilution buffer from the ROS Glo™ kit. Separately, 40 µL of cysteine and enhancer were diluted into 4 mL of Luciferin solution. In each well, 49 µL of the enzyme solution was dispensed, followed by 1 µL of the test compound, and incubated for 30 min. Then, 49 µL of the substrate solution was added, and the reaction proceeded at 37 °C for 60 min. Next, 10 µL of the H2O2 probe solution was added and incubated for 15 min. Subsequently, 40 µL of a luciferin solution containing cysteine and an enhancer was added, followed by an additional 30-minute incubation at 37 °C. Luminescence was subsequently recorded using a microplate luminescence reader (SpectraMax i3, Molecular Devices).

[1] = Quantification of drug concentration in plasma and brain of mice (LC-MS/MS); type: in vivo, C57BL/6J mice; settings: mouse
Description: Male C57BL/6J mice (8 weeks old, n = 24, non-fasted; Charles River Japan (CRJ), OrientBio, Seongnam, Korea) were dosed with 50 mg/kg of Vuti once and sacrificed at 0, 1, 2, 4, 6, 8, 10, 24 h time point (n = 3 per time point). Their whole blood was collected via the vena cava in a heparin-coated syringe and their whole brain was collected after perfusion with 0.9% saline. Vuti was quantified in both plasma and brain samples using LC-MS/MS analysis. This study was performed in accordance with the Association for Assessment and Accreditation of Laboratory Animal Care International (AAALAC; Approval No. LCDI-2021-0027).
LC-MS/MS analysis to quantify Vuti used previously set conditions. Briefly, HPLC-ESI-MS/MS analyses were performed using a 1200 series HPLC system (Agilent Technologies, Wilmington, DE) coupled to 6490 Accurate-Mass Triple Quadrupole Mass Spectrometer (Agilent Technologies, Wilmington, DE). Mass detection was performed in the positive ion mode, and the column temperature was maintained at 40 °C using a thermostatically controlled column oven. The column used for the separation was Hypersil GOLD C18 column (2.1 × 100 mm ID; 1.9 μm, Thermo Science). The mobile phases consisted of 0.1% acetic acid in distilled water (solvent A) and 0.1% acetic acid in ACN: MeOH = 3:1 (v/v) (solvent B). The LC gradient was as follows: 0–3 min, B 20%; 3–5 min, B 20 − 80%; 5–8 min, B 80%; 8–10 min, B 80 − 20%; and 10–15 min, B 20%. The flow rate was 250 µL/ min, and the total run time was 15 min. For multiple reaction monitoring (MRM) analyses, the target transition used was 355.1/151.0 m/z for Vuti. The collision energy was 17 V and nitrogen was used as the desolvation gas at a flow rate of 11 L/min and at 300 °C. Skyline software (MacCoss Laboratory, University of Washington, Seattle, WA) was used to process the LC-MS/MS data.

MAO-B = biological target: T2, MAO-B (Homo sapiens, UniProt P27338); assay: HRP/Amplex red based MAO-B enzyme activity assay; type: biochemical; settings: read-out: IC50, MAO-B assay, HRP/AR method
T2 sequence (P27338 1-520): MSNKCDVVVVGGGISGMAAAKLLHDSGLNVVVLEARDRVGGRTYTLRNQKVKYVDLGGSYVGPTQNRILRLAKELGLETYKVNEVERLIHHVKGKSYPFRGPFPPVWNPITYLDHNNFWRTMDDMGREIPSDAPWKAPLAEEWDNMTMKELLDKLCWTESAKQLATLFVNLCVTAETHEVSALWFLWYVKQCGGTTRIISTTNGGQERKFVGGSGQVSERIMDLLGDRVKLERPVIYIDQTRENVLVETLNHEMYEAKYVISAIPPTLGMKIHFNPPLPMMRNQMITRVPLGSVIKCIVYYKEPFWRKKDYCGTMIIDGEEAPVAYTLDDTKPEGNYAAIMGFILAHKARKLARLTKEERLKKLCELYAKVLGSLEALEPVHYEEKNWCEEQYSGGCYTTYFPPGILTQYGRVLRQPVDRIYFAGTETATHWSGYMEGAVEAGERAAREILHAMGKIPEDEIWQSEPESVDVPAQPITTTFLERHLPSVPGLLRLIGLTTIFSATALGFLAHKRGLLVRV
Description: MAO-A or MAO-B enzyme solutions were prepared by diluting 10 µL of a 2.5 mg/mL MAO-A or MAO-B stock into 10 mL of 50 mM sodium phosphate buffer (pH 7.4). A substrate assay mixture was then prepared by combining benzylamine (for MAO-B) or tyramine (for MAO-A) from a 100 mM stock (200 µL in 10 mL phosphate buffer, final concentration 1 mM) with 100 µL of a 20 mM AR reagent stock (final concentration 0.1 mM) and 100 µL of a 200 U/mL HRP stock (final concentration 1 U/mL) in 10 mL phosphate buffer. […] Next, 50 µL of the substrate assay mixture was added, and the reaction was carried out at 37 °C for 60 min. The production of resorufin was quantified by fluorescence measurement (excitation at 540 nm and emission at 580 nm).

Q: With `CCOc1ccc(C2COc3c(ccc4c3CCC(C)(C)O4)C2)c(O)c1` (stereo not drawn) [Vuti, Vutiglabridin] as the compound, how does the IC50 (MAO-A) read?
A: 24.7 µM

Q: And the Kp at 6 h ([1]; male, C57BL/6J, brain / plasma, oral, single 50 mg/kg, at Tmax of 6 h, read-out: brain concentration relative to plasma)?
A: 2.7

Q: What about the Kp ([1]; male, C57BL/6J, brain / plasma, single oral 50 mg/kg, read-out: brain relative to plasma by AUC24h) of the same compound?
A: 2.6

Q: And the concentration at 6 h ([1]; male, C57BL/6J, brain, single oral 50 mg/kg, at Tmax of 6 h, read-out: concentration in brain)?
A: 4030 ng/g

Q: And the Tmax ([1]; male, C57BL/6J, plasma, single oral 50 mg/kg)?
A: 6 h

Q: What about the concentration at 6 h ([1]; male, C57BL/6J, plasma, single oral 50 mg/kg, at Tmax of 6 h, read-out: concentration in plasma) of the same compound?
A: 1490 ng/mL

Q: And the AUC(0-t) ([1]; male, C57BL/6J, plasma, single oral 50 mg/kg, read-out: AUC24h in plasma)?
A: 16100 ng·h/mL

Q: And the AUC24h in brain ([1]; single oral 50 mg/kg)?
A: 42.5 µg·h/g

Q: And the IC50 (MAO-B)?
A: 425 µM
